Reference: article PMC11111895, “Identification of a dCache-type chemoreceptor in Campylobacter jejuni that specifically mediates chemotaxis towards methyl pyruvate” (Frontiers in Microbiology, 2024)
Read-outs that look alike come from different tables or passages of the source.

How the values were obtained:
Tlp11-LBD = test: Microscale thermophoresis (MST) of Tlp11-LBD; type: binding, C. jejuni ATCC 33560
Method: (§1) The His-tag dye (MO-L018 RED-tris-NTA, NanoTemper, Germany) was adjusted to a final concentration of 25 nM and used to label the purified protein with a His-tag. The compound was diluted to a series of concentrations in phosphate-buffered saline ([Duan et al., 2023]) with 0.05% Tween 20 (PBS-T) buffer and mixed in a ratio of 1:1 with protein. The mixtures were loaded into capillaries (Monolith™ Series capillaries, NanoTemper) by means of capillary action. Thermophoresis was measured using a Monolith™ NT.115 (NanoTemper) instrument, with 40% excitation and 40% MST power configuration. The time-traces of changes in fluorescence, which reflected the thermophoretic movement of labeled protein affected by different concentrations of compound were recorded, and the dose–response curves were fitted with the ‘temperature jump and thermophoresis’ mode. Data analysis was performed using MO. Affinity Analysis version 2.3 (NanoTemper) and Prism version 8.0.2 (GraphPad Software, United States).
MST quantifies interaction affinities by detecting the direct movement of fluorescent molecules along temperature gradients in capillaries. Ligand binding changes the thermophoretic movement of proteins, which can be used to derive Kds, by sequentially scanning capillaries with different ligand concentrations. MST has been applied to the study of weak binding systems and validated to provide reliable results ([Linke et al., 2016]; [Gao et al., 2021]). […] We also tested the binding abilities of methyl pyruvate analogues to Tlp11-LBD using MST (Supplementary Table S3).

[1] = tested on: Tlp11-LBD (residues 32–332 of Tlp11); test: Thermal shift assay (TSA) of Tlp11-LBD; type: binding, C. jejuni ATCC 33560
Method: TSA measurements were performed using a quantitative Real-Time PCR System (LightCycler® 480; Roche, United States), to monitor the Tm of the LBD proteins. The compounds listed in Supplementary Table S2 were used as ligand candidates for the high-throughput screening. Each 25 μL mixture for the standard assay contained 20 μM protein, 1–2 mM compound in Buffer C, and SYPRO™ Orange dye (Life Technologies, United States), at 5× concentration. Samples were heated from 26°C to 85°C, with a ramp rate of 1.2°C min^−1, to denature the protein. Protein unfolding curves were recorded by detecting the changes in fluorescence. The Tm values were calculated using first-derivative values (dF/dT) from the raw data.
Fluorescence-based TSA, which has been widely used to discover direct-binding molecules of proteins with high efficiency ([Fernández et al., 2018]), was used to identify the ligand specificity of the C. jejuni chemoreceptor Tlp11. The Tlp11-LBD protein (residues 32–332 of Tlp11) from the strain C. jejuni ATCC 33560 was expressed and purified from E. coli. Hydrophobic reactive dyes were added to the purified protein sample, and the protein was heated to record the change in fluorescence intensity as the temperature increased during the denaturation process of the protein (see Materials and Methods). The melting temperature (Tm) of the target protein was obtained and represented as the midpoint of the protein unfolding transition. Most ligands stabilize the protein during binding, leading to an increase in Tm. Using TSA, we screened a compound library composed of 131 molecules (Supplementary Table S2) that commonly act as microbial carbon and nitrogen sources or metabolites in the human GI tract. Among the compounds in the library, methyl pyruvate elicited the most significant increase in Tm. In the absence of the ligand, the Tm of Tlp11-LBD was 38.3°C, while in the presence of 1 mM methyl pyruvate, the Tm increased by 1.1°C compared to buffer (Figure 1A).

[2] = target: Tlp11-LBD homologue (WP_257425542.1, residues 31-331); test: MST of Tlp11-LBD homologue; type: binding, Campylobacter upsaliensis; details: C. upsaliensis LBD
Method: as §1
To evaluate whether these potential Tlp11-LBD homologues could bind to methyl pyruvate, we conducted a structural analysis of the LBDs of six chemoreceptors from C. coli, H. equorum, H. himalayensis, H. mesocricetorum, H. ganmani, and C. upsaliensis using Alphafold 2. […]

[3] = tested on: C. jejuni 11168ΩTlp11/ΔCheY; type: cell-based, Campylobacter jejuni; details: 11168ΩTlp11/ΔCheY; microfluidic device
[4] = tested on: C. jejuni NCTC 11168ΩTlp11 cells; type: cell-based, Campylobacter jejuni; details: 11168ΩTlp11 cells; microfluidic device, 30 min

`COC(=O)C(C)=O` [methyl pyruvate, Methyl pyruvate] gave a Kd (Tlp11-LBD; 250 nM protein, methyl pyruvate at pH 7.0, read-out: Kd of Tlp11-LBD binding) of 688 ± 140 µM, a Kd (Tlp11-LBD; Tlp11-LBD saturated with 5 mM quinoline, read-out: Kd of Tlp11-LBD interacting with methyl pyruvate) of 3900 ± 1100 µM and a Kd (Tlp11-LBD; Tlp11-LBD saturated with 5 mM toluene, read-out: Kd of Tlp11-LBD interacting with methyl pyruvate) of 18000 ± 3000 µM. For the same compound, the “Tm increase of Tlp11-LBD compared to buffer (ΔTm)” value ([1]; 1 mM compound, 20 μM protein) was 1.1 °C, the “ΔTm of Tlp11-LBD” value ([1]; 3 mM compound) was 1.3 °C and the “ΔTm of Tlp11-LBD” value ([1]; 10 mM compound) was 2.8 °C. The Kd [2] was 1900 ± 500 µM, the chemotactic response [3] was “no chemotaxis” and the chemotactic response [4] was “robust attractant response”.
